# Like-named read-outs stand apart in the source and are kept apart here. Bridge positions count the residues as written; N and C are the ends. Peptide text beside a SMILES is read from it. I, II: the chains in the order shown.
# Tests used:
# [1] = test system: human conjunctival epithelial cells; assay type: cell-based
# Experimental: The results are from four independent experiments and data points show the mean and standard deviations. The X axis indicates the peptide concentration in μg/ml and the Y axis indicates the % cell viability. The cytotoxicity of V2 dimer were tested against human conjunctival cells according to the method described in WO 2007/126392 and compared with native hBD3. […] Wildtype hBD3 was cytotoxic at concentrations of about 15 μg/ml, however, the V2 dimer was not cytotoxic at concentrations of 100 μg/ml.
# [2] = test system: Clinical Escherichia coli DB16027 Source: Blood; assay type: cell-based
# Experimental: (§1) MICs was determined by broth macrodilution method modified from that described by the National Committee for Clinical Laboratory Standards (NCCL). The Mueller Hinton Broth (MHB) at ⅙ strength and without addition of Ca^2+ and Mg^2+ was used for dilution. Serial twofold dilutions of V2 dimer solution was prepared in MHB (⅙ strength) in test tubes. 1 ml of inoculum of test organisms in MHB (⅙ strength) was added to 1 ml of each dilution of V2 dimer to yield as final concentration of 10^4 to 10^5 colony forming units/ml in each test tube. The tubes were incubated at 35° C. for 16 to 20 hours. A positive control containing only the broth and organism, and a negative control tube containing only the broth were also incubated in parallel to the test samples. The above was repeated for each different test organism in separate experiments. The MIC of V2 dimer peptide for each clinical isolate or reference organism was read as the lowest concentration of peptide that inhibited visible growth of the test organism.
# (§2) The MIC was also determined for other peptides and compared to gentamicin.
# [3] = test system: Methicillin-resistant staphylococcus aureus (MRSA) DM09808R Source: Eye; assay type: cell-based; conditions: MHB 1/6 strength; 35° C.; 16 to 20 hours
# Experimental: as §1, §2
# [4] = test system: Clinical Pseudomonas aeruginosa PAE 239 DM5790/07 Source: Wound; assay type: cell-based
# Experimental: as §1, §2
# [5] = test system: Clinical Pseudomonas aeruginosa PAE 230 DR4877/07 Source: Sputum; assay type: cell-based
# Experimental: as §1, §2
# [6] = test system: Clinical Pseudomonas aeruginosa PA4-PAE 249 DM15013 Source: Wound; assay type: cell-based; conditions: USP Phosphate Buffer pH 7.2, 4 hrs, 35° C.
# Experimental: (§3) The method for testing antimicrobial activity of antimicrobial peptides used an absolute killing procedure as described below. The bacterial cultures were grown on Trypticase Soy Agar (TSA) […], and the yeast culture on Sabouraud Dextrose Agar ([…] 35° C. for 16 hours. The organisms were harvested by centrifugation and washing twice in Phosphate buffer, pH 7.2 (United States Pharmacopeia, USP) at 20° C. The freeze-dried antimicrobial compound was dissolved in purified water and distributed into screw-capped plastic tubes at a concentration of 1,000 micro-grams (μg) per ml. These served as stock solutions and were kept at -20° C. On the day of conducting the test, one tube of the stock solution was defrosted and diluted in purified water to a concentration of 500 μg/ml. Thereafter, further dilutions were carried out in either USP Phosphate Buffer, pH 7.2 or other solutions (including but not limited to 10 mM sodium phosphate buffer, pH 7.4, 10 mM potassium buffer 7.2 or 155.2 mM NaCl), to the test concentrations required, normally ranging from 6.25 μg/ml to 50 μg/ml. Ten micro-liters (μl) of the test organism of standardised concentration was inoculated into one ml of the compound test solution of specific test concentration to provide a final count of between 1×10^5 cfu/ml and 1×10^6 cfu/ml as far as possible. The inoculated test solutions were than incubated at 35° C. for 4 hours. The incubation temperature and time may be varied as required. After incubation, the antimicrobial activity of the test solutions was inactivated by a 10-fold dilution in D/E Neutralising Broth (NB). Further dilutions were carried out in the NB, and plated out in TSA for bacteria, and SDA for yeast culture. The plates were incubated at 35° C. for 72 hours. The viable count of the survivor organisms was then determined. As an inoculum control, the test organism was inoculated, parallel to the Test, into the buffer used in the preparation of the test solutions instead and incubated under the same condition as the Test. The viable count of the inoculum control was determined as for the Test. […] The method described above was used for Examples 3-7 and in particular, the method for gentamicin in Example 6 is similar except that gentamicin was substituted for the antimicrobial compound.
# [7] = test system: Clinical Pseudomonas aeruginosa Ps-D 07DM023104 Source: Eye; assay type: cell-based; conditions: USP Phosphate Buffer pH 7.2, 4 hrs, 35° C.
# Experimental: as §3
# [8] = test system: Clinical Pseudomonas aeruginosa Ps-C 07DM023155 Source: Eye; assay type: cell-based; conditions: USP Phosphate Buffer pH 7.2, 4 hrs, 35° C.
# Experimental: as §3
# [9] = test system: Clinical Pseudomonas aeruginosa PA3-PAE 240 DU14476/07 Source: Urine; assay type: cell-based; conditions: USP Phosphate Buffer pH 7.2, 4 hrs, 35° C.
# Experimental: as §3
# [10] = test system: Clinical Pseudomonas aeruginosa PA2-PAE 239 DM5790/07 Source: Wound; assay type: cell-based; conditions: USP Phosphate Buffer pH 7.2, 4 hrs, 35° C.
# Experimental: as §3
# [11] = test system: Clinical Pseudomonas aeruginosa PA1-PAE 230 DR4877/07 Source: Sputum; assay type: cell-based; conditions: USP Phosphate Buffer pH 7.2, 4 hrs, 35° C.
# Experimental: as §3
# [12] = test system: Clinical Cadida albicans DF2672R Source: Urine; assay type: cell-based, Candida albicans
# Experimental: as §1, §2
# [13] = test system: Clinical Pseudomonas aeruginosa 07DM023376 Source: Eye; assay type: cell-based; conditions: Clinical 07DM023376 Source: Eye
# Experimental: as §1, §2
# [14] = test system: Escherichia coli ATCC25922; assay type: cell-based
# Experimental: as §1, §2
# [15] = test system: Candida albicans ATCC10231; assay type: cell-based
# Experimental: as §1, §2
# [16] = test system: Clinical Pseudomonas aeruginosa PAE 249 DM15013 Source: Wound; assay type: cell-based; conditions: Clinical PAE 249 DM15013 Source: Wound
# Experimental: as §1, §2
# [17] = test system: Clinical Pseudomonas aeruginosa PAE 240 DU14476/07 Source: Urine; assay type: cell-based; conditions: Clinical PAE 240 DU14476/07 Source: Urine
# Experimental: as §1, §2
# [18] = test system: Clinical Staphylococcus aureus DM4001 Source: Eye; assay type: cell-based
# Experimental: as §1, §2
# [19] = test system: Clinical Pseudomonas aeruginosa DM 023104 Source: Eye; assay type: cell-based; conditions: Clinical DM 023104 Source: Eye
# Experimental: as §1, §2
# [20] = test system: Clinical Pseudomonas aeruginosa 07DM 023257 Source: Eye; assay type: cell-based; conditions: Clinical 07DM 023257 Source: Eye
# Experimental: as §1, §2
# [21] = test system: Clinical Pseudomonas aeruginosa DM 023155 Source: Eye; assay type: cell-based; conditions: Clinical DM 023155 Source: Eye
# Experimental: as §1, §2
# [22] = test system: Fusarium solani ATCC 36031; assay type: cell-based
# Experimental: as §1, §2
# [23] = test system: Clinical Escherichia coli DU46381R Source: Urine; assay type: cell-based
# Experimental: as §1, §2
# [24] = MHB 1/6 strength, 35° C., 16 to 20 hours
# [25] = Clinical PAE 239 DM5790/07 Source: Wound
# [26] = Clinical PAE 230 DR4877/07 Source: Sputum
molecule,measurement,setting,value
"GIINTLQKYYCRVRGGRCAVLSCLPKEEQIGKCSTRGRKCCRRKK (Homo sapien) [Wildtype hBD3, reference compound]",concentration at which cytotoxic,[1],about 15 μg/ml
Gentamicin,MIC,[2]; [24],0.78 µg/mL
same,MIC,[3],12.5 µg/mL
same,MIC,[4]; [24],25 µg/mL
same,MIC,[5]; [24],400 µg/mL
same,Log Reduction,[6]; 3.125 ug/ml,2.28
same,Log Reduction,[6]; 6.25 ug/ml,2.41
same,Log Reduction,[6]; 12.5 ug/ml,2.50
same,Log Reduction,[6]; 25.0 ug/ml,2.60
same,Log Reduction,[6]; 50.0 ug/ml,2.63
same,Log Reduction,[7]; 3.125 ug/ml,>4.33
same,Log Reduction,[7]; 6.25 ug/ml,>4.33
same,Log Reduction,[7]; 12.5 ug/ml,>4.33
same,Log Reduction,[7]; 25.0 ug/ml,>4.33
same,Log Reduction,[7]; 50.0 ug/ml,>4.33
same,Log Reduction,[8]; 3.125 ug/ml,>4.61
same,Log Reduction,[8]; 6.25 ug/ml,>4.61
same,Log Reduction,[8]; 12.5 ug/ml,>4.61
same,Log Reduction,[8]; 25.0 ug/ml,>4.61
same,Log Reduction,[8]; 50.0 ug/ml,>4.61
same,Log Reduction,[9]; 3.125 ug/ml,3.66
same,Log Reduction,[9]; 6.25 ug/ml,3.76
same,Log Reduction,[9]; 12.5 ug/ml,3.88
same,Log Reduction,[9]; 25.0 ug/ml,4.18
same,Log Reduction,[9]; 50.0 ug/ml,4.57
same,Log Reduction,[10]; 3.125 ug/ml,3.02
same,Log Reduction,[10]; 6.25 ug/ml,3.07
same,Log Reduction,[10]; 12.5 ug/ml,3.03
same,Log Reduction,[10]; 25.0 ug/ml,3.04
same,Log Reduction,[10]; 50.0 ug/ml,3.31
same,Log Reduction,[11]; 3.125 ug/ml,0.22
same,Log Reduction,[11]; 6.25 ug/ml,0.35
same,Log Reduction,[11]; 12.5 ug/ml,0.65
same,Log Reduction,[11]; 25.0 ug/ml,0.54
same,Log Reduction,[11]; 50.0 ug/ml,0.39
"N=C(N)NCCC[C@H](NC(=O)[C@H](CCCNC(=N)N)NC(=O)[C@H](Cc1ccc(O)cc1)NC(=O)[C@H](Cc1ccc(O)cc1)NC(=O)[C@H](CCCCN)NC(=O)[C@H](CCCNC(=N)N)NC(=O)CNC(=O)[C@@H](N)CCCNC(=N)N)C(=O)O [Y2-8AA, RGRKYYRR] (H-RGRKYYRR-OH; N-terminus and C-terminus assumed)",MIC,[12],50 µg/mL
same,MIC,[13],50 µg/mL
same,MIC,[2]; Clinical DB16027 Source: Blood,25 µg/mL
same,MIC,[14],25 µg/mL
same,MIC,[15],25 µg/mL
same,MIC,[16],>50 µg/mL
same,MIC,[17],6.25 µg/mL
same,MIC,[18],>50 µg/mL
same,MIC,[19],>50 µg/mL
same,MIC,[20],>50 µg/mL
same,MIC,[21],>50 µg/mL
same,MIC,[22],50 µg/mL
same,MIC,[23],25 µg/mL
same,MIC,[4]; [25],>50 µg/mL
same,MIC,[5]; [26],>50 µg/mL
"CC(C)[C@H](NC(=O)[C@H](CCCCN)NC(=O)[C@H](CCCNC(=N)N)NC(=O)CNC(=O)[C@@H](N)CCCNC(=N)N)C(=O)N[C@H](C(=O)N[C@@H](CCCNC(=N)N)C(=O)N[C@@H](CCCNC(=N)N)C(=O)NCCCC[C@H](NC(=O)[C@H](CCCNC(=N)N)NC(=O)[C@H](CCCNC(=N)N)NC(=O)[C@@H](NC(=O)[C@@H](NC(=O)[C@H](CCCCN)NC(=O)[C@H](CCCNC(=N)N)NC(=O)CNC(=O)[C@@H](N)CCCNC(=N)N)C(C)C)C(C)C)C(=O)NCCCC[C@H](NC(=O)[C@H](CCCCNC(=O)[C@H](CCCNC(=N)N)NC(=O)[C@H](CCCNC(=N)N)NC(=O)[C@@H](NC(=O)[C@@H](NC(=O)[C@H](CCCCN)NC(=O)[C@H](CCCNC(=N)N)NC(=O)CNC(=O)[C@@H](N)CCCNC(=N)N)C(C)C)C(C)C)NC(=O)[C@H](CCCNC(=N)N)NC(=O)[C@H](CCCNC(=N)N)NC(=O)[C@@H](NC(=O)[C@@H](NC(=O)[C@H](CCCCN)NC(=O)[C@H](CCCNC(=N)N)NC(=O)CNC(=O)[C@@H](N)CCCNC(=N)N)C(C)C)C(C)C)C(=O)N[C@@H](CCCCN)C(=O)O)C(C)C [V2-tetramer] (I: H-RGRKVVRRKKK-OH / II: H-RGRKVVRRK / III: H-RGRKVVRR / IV: H-RGRKVVRR; amide I:9-IV:C, I:10-II:C, II:9-III:C; N-terminus assumed)",MIC,[12],12.5 µg/mL
same,MIC,[13],6.25 µg/mL
same,MIC,[2]; Clinical DB16027 Source: Blood,6.25 µg/mL
same,MIC,[14],12.5 µg/mL
same,MIC,[15],12.5 µg/mL
same,MIC,[16],6.25 µg/mL
same,MIC,[17],6.25 µg/mL
same,MIC,[18],12.5 µg/mL
same,MIC,[19],6.25 µg/mL
same,MIC,[20],12.5 µg/mL
same,MIC,[21],6.25 µg/mL
same,MIC,[22],3.125 µg/mL
same,MIC,[23],6.25 µg/mL
same,MIC,[4]; [25],12.5 µg/mL
same,MIC,[5]; [26],12.5 µg/mL
